System: Meth A
Test: Tumor rejection (immunization-challenge) assay; tumor growth AUC and tumor rejection score (TRS)
Assay type: in vivo, BALB/cJ mice
Protocol: Each line represents tumor growth in a single mouse (n = 5 mice per group). AUC for each group is plotted in the panel on the right. Data are presented as mean ± SD. P values were calculated using 1-way ANOVA test adjusted for multiple comparisons (Tukey’s multiple comparison test). c Several truncated versions of the 18-mer Ccdc85c^MUT peptide were tested in tumor rejection assay. BALB/cJ mice were immunized and tumor challenged. Each line represents tumor growth in a single mouse. Although mice were immunized with individual peptides, the data for multiple peptides are grouped into one with the composition of the peptides shown on the right. The tumor rejection data for individual peptides are shown in Supplementary Fig. 1. Tumor rejection score (TRS) for each neoepitope is shown in the yellow box, where five represents a complete tumor protection and zero means no tumor rejection. d On the left panel, total Area Under the Curve (AUC) scores for each group in B are plotted. […] Error bars represent standard deviation (SD). […] P values were calculated using 1-way ANOVA test adjusted for multiple comparisons. […] Matched peak lists for the “heavy” and “light” ions were extracted and monitored, while only single charge y ions were plotted. See Methods for details. f Predicted (by NetMHC4.0) and measured IC50 values of the binding of candidate precise neoepitopes of Ccdc85c^MUT to K^d are shown. […] The affinities of the MS/TRS predicted neoepitopes were also measured for D^d and L^d; measured affinities were below the level of detection.
The mutation is heterozygous and the un-mutated as well as the mutated reads are detected in the transcripts. […] All mice were challenged with the Meth A cells, and tumor rejection was monitored (Fig. 1b upper panel). […]
Area under the curve (AUC) is used as a tool to measure tumor growth. Briefly, AUC was calculated by selecting “Curves & Regression” and then “Area under curve” from the “analyze” tool, using the Prism 5.0 (GraphPad). […]

DPSSTYIRPFETKVKLLD [18-mer peptide with the mutant amino acid near the center]
tumor rejection (in words) (BALB/cJ mice immunized twice, CTLA4 blockade): potent tumor rejection or control in all mice | Tumor rejection score (TRS) (BALB/cJ mice, BMDCs pulsed with 40 µg peptide, two immunizations one week apart, CTLA4 blockade (9D9), scale 0 (no rejection) to 5 (100% of mice)): 5.0
